Assay results taken from patent US12239645B2, “Targeted dosing for the treatment of complement mediated disorders” (Achillion Pharmaceuticals, Inc., priority 2018, dated 2025).
Converted amounts (≈) assume the structure as drawn.

System: complement alternative pathway (AP) activity
Assay: MAD study: serum AP activity ex vivo by AP Wieslab assay
Type: in vivo, human
Settings: for % AUEC0-12 / DURATION0-12: Days 7 and 14 combined analysis
Description: Serum AP hemolysis activity was assessed in samples collected from all cohorts at predefined time points from Day 1 (pre-dose) through Day 21. Intense sampling was obtained on Day 1 (0 h to 12 h), Day 7 (0 h to 12 h), and Day 14 (0 h to 16 h); all other serum samples were collected at 0 h (morning PK troughs) on the indicated days. Activity for each cohort is shown for the complete time course Day 1-21 (FIG. 17), Day 1 (FIG. 18), Day 7 (FIG. 19) and Day 14 (FIG. 20). Serum complement AP activity measured ex vivo by the AP Wieslab assay, serum total complement classical pathway (CP) activity, plasma complement Bb concentrations, and serum FD, C3, and C4 concentrations were also measured at predefined time points.

[1] = Homo sapiens, sigmoidal model, multiple-dose cohorts

CC(=O)c1nn(CC(=O)N2[C@H](C(=O)Nc3nc(Br)ccc3C)C[C@@]3(C)C[C@@H]23)c2ccc(-c3cnc(C)nc3)cc12 [Compound 1, (1R,3S,5R)-2-(2-(3-acetyl-5-(2-methylpyrimidin-5-yl)-1H-indazol-1-yl)acetyl)-N-(6-bromo-3-methylpyridin-2-yl)-5-methyl-2-azabicyclo[3.1.0]hexane-3-carboxamide]
% AUEC0-12 (120 mg BID): 98.6% | DURATION0-12 (120 mg BID): 11.6 h | % AUEC0-12 (200 mg BID): 99.3% | DURATION0-12 (200 mg BID): 11.9 h | inhibition at 120 mg (Homo sapiens, 120 mg BID and 200 mg BID, read-out: calculated percent inhibition across 0 h and 12 h time points): > 90% | EC50 (Homo sapiens, Emax model, multiple-dose cohorts): 0.0143 µg/mL (≈ 0.0237 µM) | EC50 [1]: 0.0192 µg/mL (≈ 0.0319 µM) | EC90 [1]: 0.0669 µg/mL (≈ 0.111 µM)
